In patent publication US4581352A, “Thienothienylglycyl cephalosporin derivatives” (priority 1984, dated 1986):
In brackets after ≈: the same amount, converted by molar mass. Where two headings read alike, the source gives them in different places.

Key:
Type in all cases: cell-based
E. coli = assay: in vitro agar dilution assay (MIC), E. coli; settings: Escherichia coli
Strep. PN = assay: in vitro agar dilution assay (MIC), Strep. PN; settings: read-out: Agar Dilution MIC
Excerpt: (§1) A typical and preferred compound provided by this invention is 7-(thieno[3,2-b]thien-2-yl)glycylamido-3-methyl-3-cephem-4-carboxylic acid, the compound illustrated in Example 1. The antibacterial activity of this compound and others of the invention has been determined in standard in vitro agar dilution assays against a variety of gram positive microorganisms. The following Tables present typical minimum inhibitory concentrations (MIC's) in μg/ml for several compounds of the invention when evaluated against the indicated microorganisms. MIC's for several known compounds are also presented for comparison.

H. influ. = assay: in vitro agar dilution assay (MIC), H. influ.
Klebsiella = assay: in vitro agar dilution assay (MIC), Klebsiella
Staph. epi = assay: in vitro agar dilution assay (MIC), Staph. epi; settings: read-out: Agar Dilution MIC
Strep. A = assay: in vitro agar dilution assay (MIC), Strep. A; settings: read-out: Agar Dilution MIC
Excerpt: as §1

Staph. aureus = assay: in vitro agar dilution assay (MIC), Staph. aureus; settings: Staphylococcus aureus
Strep. D = assay: in vitro agar dilution assay (MIC), Strep. D; settings: for MIC: read-out: Agar Dilution MIC
Excerpt: as §1

[1] = Klebsiella strain X26, read-out: Agar Dilution MIC
[2] = Klebsiella strain X68, read-out: Agar Dilution MIC
[3] = read-out: Agar Dilution MIC, Staph. aureus strain S13E
[4] = Klebsiella strain KAE, read-out: Agar Dilution MIC
[5] = Staph. aureus strain X400, read-out: Agar Dilution MIC
[6] = Staph. aureus strain X1.1, read-out: Agar Dilution MIC
[7] = Staph. aureus strain V41, read-out: Agar Dilution MIC

CC1(C)S[C@@H]2[C@H](NC(=O)[C@H](N)c3ccccc3)C(=O)N2[C@H]1C(=O)O [Ampicillin, reference compound]
MIC (E. coli; E. coli strain EC14): 4 µg/mL (≈ 11.4 µM) | MIC (E. coli; E. coli strain N10): 8 µg/mL (≈ 22.9 µM) | MIC (Strep. PN; Strep. PN strain PARK): 0.03 µg/mL (≈ 0.0859 µM) | MIC (H. influ.; H. influ. strain 76): 16 µg/mL (≈ 45.8 µM) | MIC (H. influ.; H. influ. strain C.L.): 0.5 µg/mL (≈ 1.43 µM) | MIC (Klebsiella; [1]): 16 µg/mL (≈ 45.8 µM) | MIC (Klebsiella; [2]): 16 µg/mL (≈ 45.8 µM) | MIC (Staph. epi; Staph. epi strain EPI1): 8 µg/mL (≈ 22.9 µM) | MIC (Strep. A; Strep. A strain C203): 0.03 µg/mL (≈ 0.0859 µM) | MIC (Staph. aureus; [3]): 64 µg/mL (≈ 183 µM) | MIC (Strep. D; Strep. D strain 2041): 2 µg/mL (≈ 5.72 µM) | MIC (Strep. D): 4 µg/mL (≈ 11.4 µM)

CC1=C(C(=O)O)N2C(=O)[C@@H](NC(=O)[C@H](N)c3ccccc3)[C@H]2SC1 [Cephalexin, reference compound]
MIC (E. coli; E. coli strain EC14): 4 µg/mL (≈ 11.5 µM) | MIC (E. coli; E. coli strain N10): 8 µg/mL (≈ 23 µM) | MIC (E. coli; E. coli strain TEM): 8 µg/mL (≈ 23 µM) | MIC (Strep. PN): 2 µg/mL (≈ 5.76 µM) | MIC (Klebsiella; read-out: Agar Dilution MIC, Klebsiella strain KAE): 128 µg/mL (≈ 368 µM) | MIC (Klebsiella; read-out: Agar Dilution MIC, Klebsiella strain X26): 4 µg/mL (≈ 11.5 µM) | MIC (Klebsiella; read-out: Agar Dilution MIC, Klebsiella strain X68): 8 µg/mL (≈ 23 µM) | MIC (Staph. epi; Staph. epi strain EPI1): 32 µg/mL (≈ 92.1 µM) | MIC (Staph. epi): 8 µg/mL (≈ 23 µM) | MIC (Strep. A): 0.5 µg/mL (≈ 1.44 µM) | MIC (Staph. aureus; [3]): 128 µg/mL (≈ 368 µM) | Agar Dilution MIC (Strep. D; Strep. D strain 2041): 128 µg/mL | MIC (Strep. D): 128 µg/mL (≈ 368 µM)

CC1=C(C(=O)O)N2C(=O)[C@@H](NC(=O)[C@H](N)c3cc4sccc4s3)[C@H]2SC1 [Ex. 1A, 7-D-(thieno[3,2-b]thien-2-yl)-glycylamido-3-methyl-3-cephem-4-carboxylic acid]
MIC (E. coli; E. coli strain EC14): > 64 µg/mL | MIC (E. coli; E. coli strain N10): > 64 µg/mL | MIC (E. coli; E. coli strain TEM): > 64 µg/mL | MIC (Strep. PN; Strep. PN strain PARK): 1 µg/mL (≈ 2.44 µM) | MIC (H. influ.; H. influ. strain 76): 2 µg/mL (≈ 4.88 µM) | MIC (H. influ.; H. influ. strain C.L.): 64 µg/mL (≈ 156 µM) | MIC (Klebsiella; [4]): > 64 µg/mL | MIC (Klebsiella; [1]): 8 µg/mL (≈ 19.5 µM) | MIC (Klebsiella; [2]): > 64 µg/mL | MIC (Staph. epi; Staph. epi strain 222): 2 µg/mL (≈ 4.88 µM) | MIC (Staph. epi; Staph. epi strain EPI1): 16 µg/mL (≈ 39.1 µM) | MIC (Strep. A; Strep. A strain C203): 0.25 µg/mL (≈ 0.61 µM) | MIC (Staph. aureus; [5]): > 64 µg/mL | MIC (Staph. aureus; read-out: Agar Dilution MIC): 32 µg/mL (≈ 78.1 µM) | MIC (Staph. aureus; [3]): 64 µg/mL (≈ 156 µM) | MIC (Staph. aureus; [6]): 0.5 µg/mL (≈ 1.22 µM) | MIC (Strep. D; Strep. D strain 2041): > 64 µg/mL | MIC (Strep. D; Strep. D strain X66): > 64 µg/mL

CC1=C(C(=O)O)N2C(=O)[C@@H](NC(=O)[C@@H](N)c3cc4sccc4s3)[C@H]2SC1 [Ex. 1B, 7-L-(thieno[3,2-b]thien-2-yl)-glycylamido-3-methyl-3-cephem-4-carboxylic acid]
MIC (E. coli; E. coli strain EC14): > 64 µg/mL | MIC (E. coli; E. coli strain N10): > 64 µg/mL | MIC (E. coli; E. coli strain TEM): > 64 µg/mL | MIC (Strep. PN; Strep. PN strain PARK): 16 µg/mL (≈ 39.1 µM) | MIC (H. influ.; H. influ. strain C.L.): 64 µg/mL (≈ 156 µM) | MIC (Klebsiella; [4]): > 64 µg/mL | MIC (Klebsiella; [1]): > 64 µg/mL | MIC (Klebsiella; [2]): > 64 µg/mL | MIC (Staph. epi; Staph. epi strain 222): 16 µg/mL (≈ 39.1 µM) | MIC (Staph. epi; Staph. epi strain EPI1): 64 µg/mL (≈ 156 µM) | MIC (Strep. A; Strep. A strain C203): 16 µg/mL (≈ 39.1 µM) | MIC (Staph. aureus; [5]): > 64 µg/mL | MIC (Staph. aureus; read-out: Agar Dilution MIC): 32 µg/mL (≈ 78.1 µM) | MIC (Staph. aureus; [3]): 64 µg/mL (≈ 156 µM) | MIC (Staph. aureus; [6]): 8 µg/mL (≈ 19.5 µM) | MIC (Strep. D; Strep. D strain 2041): > 64 µg/mL | MIC (Strep. D; Strep. D strain X66): > 64 µg/mL

CC1=C(C(=O)O)N2C(=O)[C@@H](NC(=O)[C@@H](N)c3cc4sc(Cl)cc4s3)[C@H]2SC1 [Ex. 2A, 7-L-(5-chlorothieno[3,2-b]thien-2-yl)glycylamido-3-methyl-3-cephem-4-carboxylic acid]
MIC (E. coli; E. coli strain EC14): > 64 µg/mL | MIC (E. coli; E. coli strain N10): > 64 µg/mL | MIC (E. coli; E. coli strain TEM): > 64 µg/mL | MIC (Strep. PN; Strep. PN strain PARK): 2 µg/mL (≈ 4.5 µM) | MIC (H. influ.; H. influ. strain 76): 2 µg/mL (≈ 4.5 µM) | MIC (H. influ.; H. influ. strain C.L.): 64 µg/mL (≈ 144 µM) | MIC (Klebsiella; [4]): > 64 µg/mL | MIC (Klebsiella; [1]): 64 µg/mL (≈ 144 µM) | MIC (Klebsiella; [2]): > 64 µg/mL | MIC (Staph. epi; Staph. epi strain 222): 2 µg/mL (≈ 4.5 µM) | MIC (Staph. epi; Staph. epi strain EPI1): 16 µg/mL (≈ 36 µM) | MIC (Strep. A; Strep. A strain C203): 1 µg/mL (≈ 2.25 µM) | MIC (Staph. aureus; [7]): 64 µg/mL (≈ 144 µM) | MIC (Staph. aureus; [5]): > 64 µg/mL | MIC (Staph. aureus; [3]): 32 µg/mL (≈ 72.1 µM) | MIC (Staph. aureus; [6]): 1 µg/mL (≈ 2.25 µM) | MIC (Strep. D; Strep. D strain 2041): > 64 µg/mL | MIC (Strep. D; Strep. D strain X66): > 64 µg/mL

CC1=C(C(=O)O)N2C(=O)[C@@H](NC(=O)[C@H](N)c3cc4sc(Cl)cc4s3)[C@H]2SC1 [Ex. 2B, 7-D-(5-chlorothieno[3,2-b]thien-2-yl)glycylamido-3-methyl-3-cephem-4-carboxylic acid]
MIC (E. coli; E. coli strain EC14): > 64 µg/mL | MIC (E. coli; E. coli strain N10): > 64 µg/mL | MIC (E. coli; E. coli strain TEM): > 64 µg/mL | MIC (Strep. PN; Strep. PN strain PARK): 0.25 µg/mL (≈ 0.563 µM) | MIC (H. influ.; H. influ. strain 76): 2 µg/mL (≈ 4.5 µM) | MIC (H. influ.; H. influ. strain C.L.): 32 µg/mL (≈ 72.1 µM) | MIC (Klebsiella; [4]): > 64 µg/mL | MIC (Klebsiella; [1]): 16 µg/mL (≈ 36 µM) | MIC (Klebsiella; [2]): > 64 µg/mL | MIC (Staph. epi; Staph. epi strain 222): 0.5 µg/mL (≈ 1.13 µM) | MIC (Staph. epi; Staph. epi strain EPI1): 4 µg/mL (≈ 9.01 µM) | MIC (Strep. A; Strep. A strain C203): 0.125 µg/mL (≈ 0.282 µM) | MIC (Staph. aureus; [7]): 16 µg/mL (≈ 36 µM) | MIC (Staph. aureus; [5]): > 64 µg/mL | MIC (Staph. aureus; [6]): 0.25 µg/mL (≈ 0.563 µM) | MIC (Strep. D; Strep. D strain 2041): 64 µg/mL (≈ 144 µM) | MIC (Strep. D; Strep. D strain X66): > 64 µg/mL

CC1=C(C(=O)O)N2C(=O)[C@@H](NC(=O)[C@H](N)c3cc4ccsc4s3)[C@H]2SC1 [Ex. 3A, 7-D-(thieno[2,3-b]thien-2-yl)-glycylamido-3-methyl-3-cephem-4-carboxylic acid]
MIC (E. coli; E. coli strain EC14): 64 µg/mL (≈ 156 µM) | MIC (E. coli; E. coli strain N10): > 64 µg/mL | MIC (E. coli; E. coli strain TEM): > 64 µg/mL | MIC (Strep. PN; Strep. PN strain PARK): 0.5 µg/mL (≈ 1.22 µM) | MIC (H. influ.; H. influ. strain 76): 2 µg/mL (≈ 4.88 µM) | MIC (Klebsiella; [4]): > 64 µg/mL | MIC (Klebsiella; [1]): 8 µg/mL (≈ 19.5 µM) | MIC (Klebsiella; [2]): > 64 µg/mL | MIC (Staph. epi; Staph. epi strain 222): 1 µg/mL (≈ 2.44 µM) | MIC (Staph. epi; Staph. epi strain EPI1): 4 µg/mL (≈ 9.77 µM) | MIC (Strep. A; Strep. A strain C203): 0.25 µg/mL (≈ 0.61 µM) | MIC (Staph. aureus; [5]): > 64 µg/mL | MIC (Staph. aureus; read-out: Agar Dilution MIC): 32 µg/mL (≈ 78.1 µM) | MIC (Staph. aureus; [3]): 16 µg/mL (≈ 39.1 µM) | MIC (Staph. aureus; [6]): 0.5 µg/mL (≈ 1.22 µM) | MIC (Strep. D; Strep. D strain 2041): > 64 µg/mL | MIC (Strep. D; Strep. D strain X66): > 64 µg/mL

CC1=C(C(=O)O)N2C(=O)[C@@H](NC(=O)[C@@H](N)c3cc4ccsc4s3)[C@H]2SC1 [Ex. 3B, 7-L-(thieno[2,3-b]thien-2-yl)-glycylamido-3-methyl-3-cephem-4-carboxylic acid]
MIC (E. coli; E. coli strain EC14): > 64 µg/mL | MIC (E. coli; E. coli strain N10): > 64 µg/mL | MIC (E. coli; E. coli strain TEM): > 64 µg/mL | MIC (Strep. PN; Strep. PN strain PARK): 2 µg/mL (≈ 4.88 µM) | MIC (H. influ.; H. influ. strain 76): 1 µg/mL (≈ 2.44 µM) | MIC (H. influ.; H. influ. strain C.L.): 16 µg/mL (≈ 39.1 µM) | MIC (Klebsiella; [4]): > 64 µg/mL | MIC (Klebsiella; [1]): 16 µg/mL (≈ 39.1 µM) | MIC (Klebsiella; [2]): > 64 µg/mL | MIC (Staph. epi; Staph. epi strain 222): 2 µg/mL (≈ 4.88 µM) | MIC (Staph. epi; Staph. epi strain EPI1): 8 µg/mL (≈ 19.5 µM) | MIC (Strep. A; Strep. A strain C203): 1 µg/mL (≈ 2.44 µM) | MIC (Staph. aureus; [7]): 64 µg/mL (≈ 156 µM) | MIC (Staph. aureus; [5]): > 64 µg/mL | MIC (Staph. aureus; [3]): 64 µg/mL (≈ 156 µM) | MIC (Staph. aureus; [6]): 1 µg/mL (≈ 2.44 µM) | MIC (Strep. D; Strep. D strain 2041): > 64 µg/mL | MIC (Strep. D; Strep. D strain X66): > 64 µg/mL
